Reference: patent publication US20120129870A1, “PIPERAZINYL DERIVATIVES USEFUL AS MODULATORS OF THE NEUROPEPTIDE Y2 RECEPTOR” (priority 2007, published 2012)

Target: T1, NPY Y2 receptor (Homo sapiens, UniProt P49146)
T1 sequence (P49146 1-381): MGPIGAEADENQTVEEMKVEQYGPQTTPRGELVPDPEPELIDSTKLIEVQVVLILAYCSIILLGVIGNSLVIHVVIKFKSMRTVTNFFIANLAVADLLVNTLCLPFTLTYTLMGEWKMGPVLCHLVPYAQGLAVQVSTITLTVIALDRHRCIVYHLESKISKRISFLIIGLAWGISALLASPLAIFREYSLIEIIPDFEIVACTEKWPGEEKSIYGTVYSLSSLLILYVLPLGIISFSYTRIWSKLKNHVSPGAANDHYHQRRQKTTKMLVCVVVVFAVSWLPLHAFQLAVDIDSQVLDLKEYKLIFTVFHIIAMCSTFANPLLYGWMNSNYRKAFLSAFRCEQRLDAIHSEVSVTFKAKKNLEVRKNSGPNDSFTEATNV
Assay: Neuropeptide Y2 radioligand binding assay ([125I]PYY, KAN-Ts membranes)
Design: endogenous in cells; host or cells: KAN-Ts cells (membrane preparation)
Settings: KAN-Ts membranes endogenously expressing Y2, [125I]PYY (80 pM), 1 h at rt
Experimental: KAN-Ts endogenously expressing Y2 receptors were used for the radioligand binding assay. Cells were grown to confluence on 150 cm^2 tissue culture plates, washed with phosphate-buffered saline (PBS), and scraped into 50 mL tubes. After centrifugation, the supernatant was aspirated, and the pellets frozen and stored at −80° C. Thawed pellets were homogenized with a polytron tissue grinder for 15 sec in 20 mM Tris-HCl, 5 mM EDTA. The homogenate was centrifuged at 800×g for 5 min and the collected supernatant was recentrifuged at 25000×g for 25 min. The resulting pellet was resuspended in binding buffer (20 mM HEPES, 120 mM NaCl, 0.22 mM KH2PO4, 1.3 mM CaCl2, 0.8 mM MgSO4). Membranes were incubated with [^125I]PYY (80 pM) in the presence or absence of test compound for 1 h at rt. The reaction was stopped by filtration through GF/C filter plates pre-soaked in 0.3% polyethylenimine and subsequently washed with Tris 50 mM, 5 mM EDTA buffer. Plates were dried for 1 h in a 55° C. oven, scintillation fluid was added and the radioactivity was counted in a Packard TopCount. Specific binding to the NPY receptor subtypes was determined by radioactivity that was bound in the presence of […]. Each binding experiment was repeated three to eight times, each in duplicate. IC50 values (i.e. concentration of unlabelled peptide or antagonist required to compete for 50% of specific binding to the radioligand) were calculated using the GraphPad Prism software (GraphPad Software Inc., San Diego Calif.) with a fit to a sigmoidal dose response curve. Apparent K, values were calculated as Ki=IC50/(1+C/KD), where C is concentration of the radioligand.

Cc1cc(NC(=O)C2CCC2)ccc1N1CCN(C(c2ccccc2)c2ncco2)CC1 (stereo not drawn) [Compound 76, Cyclobutanecarboxylic acid {3-methyl-4-[4-(oxazol-2-yl-phenyl-methyl)-piperazin-1-yl]-phenyl}-amide]
IC50: 1400 nM

CCC(CC)C(=O)Nc1ccc(N2CCN(C(c3ccccn3)c3ncco3)CC2)c(C#N)c1 (stereo not drawn) [Compound 155, N-{3-Cyano-4-[4-(oxazol-2-yl-pyridin-2-yl-methyl)-piperazin-1-yl]-phenyl}-2-ethyl-butyramide]
IC50: 150 nM

CCC(CC)C(=O)Nc1ccc(N2CCN(C(c3ccccc3)C3CCC3)CC2)c(F)c1 (stereo not drawn) [Compound 78, N-{4-[4-(Cyclobutyl-phenyl-methyl)-piperazin-1-yl]-3-fluoro-phenyl}-2-ethyl-butyramide]
IC50: 53 nM

O=C(Nc1ccc(N2CCN(C(c3ccc(F)cc3)c3ncco3)CC2)c(F)c1)[C@@H]1CCOC1 (stereo in doubt) [Compound 127, Tetrahydro-furan-3-carboxylic acid (3-fluoro-4-{4-[(4-fluoro-phenyl)-oxazol-2-yl-methyl]-piperazin-1-yl}-phenyl)-amide]
IC50: > 5000 nM

CCC(CC)C(=O)Nc1ccc(N2CCN(C(c3ccc(OC(F)(F)F)cc3)c3noc(C)n3)CC2)c(F)c1 (stereo not drawn) [Compound 281]
IC50: 65 nM

CCC(CC)C(=O)Nc1ccc(N2CCN(C(C3=N[C@H](C(=O)OC)CO3)c3ccccc3)CC2)c(F)c1 (stereo partly drawn) [Compound 179, 2-({4-[4-(2-Ethyl-butyrylamino)-2-fluoro-phenyl]-piperazin-1-yl}-phenyl-methyl)-4,5-dihydro-oxazole-4-carboxylic acid methyl ester]
IC50: 41 nM

CCC(CC)C(=O)Nc1ccc(N2CCN(C(c3ccccc3)c3nc(C(C)C)no3)CC2)c(F)c1 (stereo not drawn) [Compound 241]
IC50: 35 nM

N#Cc1cc(NC(=O)C2CCCCC2)ccc1N1CCN(C(c2ccccc2)c2ncco2)CC1 (stereo not drawn) [Compound 112, Cyclohexanecarboxylic acid {3-cyano-4-[4-(oxazol-2-yl-phenyl-methyl)-piperazin-1-yl]-phenyl}-amide]
IC50: 430 nM

O=C(NCc1ccc(N2CCN(C(c3ccccc3)c3ncco3)CC2)c(F)c1)C1CC1 (stereo not drawn) [Compound 171, Cyclopropanecarboxylic acid 3-fluoro-4-[4-(oxazol-2-yl-phenyl-methyl)-piperazin-1-yl]-benzylamide]
IC50: > 10000 nM

Cc1nc(C(c2ccc(OC(F)(F)F)cc2)N2CCN(c3ccc(NC(=O)C4CCOC4)cc3F)CC2)no1 (stereo not drawn) [Compound 280]
IC50: 430 nM

CCC(CC)C(=O)Nc1ccc(N2CCN(C(C(C)=O)c3ccccc3)CC2)c(F)c1 (stereo not drawn) [Compound 232, 2-Ethyl-N-{3-fluoro-4-[4-(2-oxo-1-phenyl-propyl)-piperazin-1-yl]-phenyl}-butyramide]
IC50: 380 nM

Cc1ccccc1C(=O)Nc1ccc(N2CCN(C(c3ccccc3)c3ncco3)CC2)c(C#N)c1 (stereo not drawn) [Compound 96, N-{3-Cyano-4-[4-(oxazol-2-yl-phenyl-methyl)-piperazin-1-yl]-phenyl}-2-methyl-benzamide]
IC50: 150 nM
